Key:
[1] = Measurement of ultraviolet-visible absorption spectrum (molecular extinction coefficient at 365 nm); type: physicochemical; details: 1×10^−4 mol/L acetonitrile solution; 50 to 2000 evaluated as desirable
Procedure: (Measurement of Ultraviolet-Visible Absorption Spectrum)
A 1×10^−4 mol/L acetonitrile solution of each test compound was prepared, and the molecular extinction coefficient at 365 nm in the ultraviolet-visible absorption spectrum was measured using an ultraviolet-visible spectrophotometer (UV-2400PC, manufactured by SHIMADZU CORPORATION). […] Considering that light should be transmitted to a deep portion in a thick film, compounds with a molecular extinction coefficient at 365 nm (i-line) of 50 to 2000 were evaluated as a compound having desirable properties.

[2] = Solubility in PGMEA (amount of PGMEA necessary for dissolving 100 mg test compound); type: physicochemical; details: 20±5° C., after 30 minutes, 16 mL or less evaluated as desirable
Procedure: To the sulfonium salt compound to be measured (test compound; 100 mg each) was added PGMEA, and a strong shaking for 30 seconds was repeated at 20±5° C. every 5 minutes. In this way, the amount of PGMEA necessary for dissolving the test compound after 30 minutes was measured. Here, “dissolving” means to reach the state where no insoluble matter can be observed by visual inspection, specifically, means that the resultant solution is clear, or a mixture in an arbitrary ratio becomes transparent.
In Table 1 below, the compounds that require PGMEA in an amount of 16 mL or less were evaluated as having desirable properties as a current target compound.

Row | SMILES | Molecular Extinction Coefficient (365 nm) [1] | PGMEA (mL): amount of PGMEA necessary for dissolving test compound [2]
1 | CC1(C)[C@@H]2CC[C@@]1(CS(=O)(=O)[O-])C(=O)C2.c1ccc([S+](c2ccccc2)c2ccccc2)cc1 [Comparative Example Compound 1, triphenylsulfonium (1S,4R)-7,7-dimethyl-2-oxobicyclo[2.2.1]heptane-1-yl methanesulfonate] | 0 | >160 mL
2 | CC1(C)[C@@H]2CC[C@@]1(CS(=O)(=O)[O-])C(=O)C2.CCCCOc1ccc2ccc(OCCCC)c([S+](CCCC)CCCC)c2c1 [Example Compound 1, 1-(2,7-di-n-butoxynaphthyl)di-n-butyl sulfonium (1S,4R)-7,7-dimethyl-2-oxobicyclo[2.2.1]heptane-1-yl methanesulfonate] | 640 | 11 mL
